Values after ≈ are worked out from the molar mass of the structure shown. Read-outs that look alike come from different tables or passages of the source.
Tests used:
[1] = molecular target: T1, RNA-dependent DNA polymerase of murine sarcoma virus (Moloney murine leukemia virus, UniProt P03355); assay: inhibition of RNA-dependent DNA polymerase of murine sarcoma virus (3H-dTTP incorporation); type: biochemical; conditions: at a concentration of 2-100 μg/ml or less; 60 min
T1 construct: The virion polymerase was purified 20-40 fold; made in house; host or cells: virions from MSV (Moloney) transformed rat 78A1 cells and MSV (Harvey) transformed mouse MEH cells; disrupted virus or polymerase purified 20-40 fold
Description: The inhibiting activity of the inventive compounds has been tested on RNA-dependent DNA polymerase of murine sarcoma virus (endogenous) and RNA-dependent DNA polymerase activity of purified enzymes. The inhibition was tested according to the methods described by C. Gurgo et al., Nature, New Biology, 229, 111, 1971. The effect of different concentrations of drugs on polymerase activity was determined by following ^3 H-dTTP (tritiated thymine deoxyriboside triphosphate) incorporation into the insoluble fraction. A typical example of the experimental procedures is the following.
Virus was isolated and purified from murine sarcoma virus (Moloney isolate) transformed rat cells (78Al cells) and murine sarcoma virus (Harvey isolate) transformed mouse cells (MEH cells) as previously described (Green et al., Proc. Nat. Acad. Sci. USA 67, 385-393, 1970, Rokutanda et al., Nature, 227, 1026-1028, 1970). The virion polymerase was purified 20-40 fold by incubation of purified virus with 0.5% NP-40 (nonidet P-40) in 0.1 M NaCl, 0.01 M Tris buffer (pH 7.6), 0.001 M EDTA for 5 minutes at room temperature and zonal centrifugation in 15-30% sucrose gradients in 10 mM sodium phosphate buffer (pH 7.4), 2.5 mM MgCl2, 10 mM dithiothreitol, and 5% glycerol for 24 hours at 38,000 rpm in a Spinco SW41 rotor. The peak fractions of enzyme activity (13-17) of 22 fractions collected, were pooled and stored at -70° C. in 30% glycerol.
Enzyme incubation was performed for 1 hour at 37° C. in 100 μl of reaction mixture containing 40 mM Tris buffer (pH 8.0), 5 mM dithiothreitol, 30 mM NaCl, 2.5 mM MgCl2, 0.1 mM dATP, dGTP, dCTP, and 10 μCi of ^3 H-dTTP (12-18 Ci/mmole) as described by Green et al. in Proc. Nat. Acad. Sci. USA 67, 385-393, 1970. The reaction was terminated by the addition of 150 μl of 1N perchloric acid. Calf thymus DNA (100 μg) was added as carrier; the radioactive DNA product was processed as described in the two papers mentioned above. Endogenous RNA-dependent DNA-polymerase activity was measured after the addition of 0.01% NP-40 to purified virus at the time of assay. The DNA-polymerase activity of purified viral polymerase was measured with 2 μg of poly d (A-T) as template and no NP-40.
Rifamycin derivatives of this invention were dissolved in dimethylsulfoxide (DMSO) at a concentration of 5 mg/ml and stored at 4° C. Inhibition of the endogenous RNA-dependent DNA-polymerase activity was tested by adding 2 μl of derivative appropriately diluted in DMSO or 2 μl of DMSO (control) to the assay mixture prior to addition to disrupted virus which contained 15 to 30 μg of viral protein. Enzyme incubation was performed for 60 minutes at 37° C. Inhibition of purified enzyme was tested by pre-incubation of 2 μl of derivative or DMSO with 30 μl of enzyme (1 to 2 μg of protein) for 10 minutes at 37° C.; then 70 μl of substrate mixture were added and the mixture further incubated and processed as described above.

[2] = system: Staphylococcus aureus strain which is resistant to rifampicin (Staph. aureus Tour); assay: in vitro minimal inhibitory concentration against rifampicin-resistant Staphylococcus aureus strain; type: cell-based; conditions: for MIC: Staphylococcus aureus, read-out: Minimal inhibitory concentration
Description: In particular, compounds illustrative of the invention at concentrations of about 10 to 20 μg/ml or less inhibit the growth of a Staph. aureus Tour strain resistant to rifampicin.
One of the most important characteristics of the new hydrazones is their activity against rifampicin-resistant Staphylococcus aureus strains. Rifampicin, that is 3-(4-methyl-1-piperazinyl)iminomethylrifamycin SV, disclosed in U.S. Pat. No. 3,342,810, is the most known and widely used rifamycin derivative in therapeutic practice.
The data of the new compounds are compared with those of representative hydrazones disclosed in U.S. Pat. No. 3,342,810.

[3] = molecular target: T2, mouse embryo RNA-polymerase I (ME-RNA-P1) (Mus musculus, UniProt O35134+P70700); assay: effect on mouse embryo RNA-polymerase I; type: biochemical; conditions: for remaining activity at 10 µg: read-out: % Control Activity of ME-RNA-P1 at 10μg; for remaining activity at 100 µg: read-out: % Control Activity of ME-RNA-P1 at 100μg
T2 construct: mouse embryo RNA-polymerase I (ME-RNA-P1); endogenous in cells; host or cells: mouse embryo cells
Excerpt: (§1) Calf-Thymus DNA. Me-RNA-P1 and ME-RNA-P2 : Single Stranded

[4] = molecular target: T3, sarcoma virus DNA-polymerases (SSV-DNA-P) (Woolly monkey sarcoma virus, UniProt P03359); assay: effect on activity of SSV-polymerase; type: biochemical
T3 construct: sarcoma virus DNA-polymerases (SSV-DNA-P)
T3 sequence (P03359 642-1310): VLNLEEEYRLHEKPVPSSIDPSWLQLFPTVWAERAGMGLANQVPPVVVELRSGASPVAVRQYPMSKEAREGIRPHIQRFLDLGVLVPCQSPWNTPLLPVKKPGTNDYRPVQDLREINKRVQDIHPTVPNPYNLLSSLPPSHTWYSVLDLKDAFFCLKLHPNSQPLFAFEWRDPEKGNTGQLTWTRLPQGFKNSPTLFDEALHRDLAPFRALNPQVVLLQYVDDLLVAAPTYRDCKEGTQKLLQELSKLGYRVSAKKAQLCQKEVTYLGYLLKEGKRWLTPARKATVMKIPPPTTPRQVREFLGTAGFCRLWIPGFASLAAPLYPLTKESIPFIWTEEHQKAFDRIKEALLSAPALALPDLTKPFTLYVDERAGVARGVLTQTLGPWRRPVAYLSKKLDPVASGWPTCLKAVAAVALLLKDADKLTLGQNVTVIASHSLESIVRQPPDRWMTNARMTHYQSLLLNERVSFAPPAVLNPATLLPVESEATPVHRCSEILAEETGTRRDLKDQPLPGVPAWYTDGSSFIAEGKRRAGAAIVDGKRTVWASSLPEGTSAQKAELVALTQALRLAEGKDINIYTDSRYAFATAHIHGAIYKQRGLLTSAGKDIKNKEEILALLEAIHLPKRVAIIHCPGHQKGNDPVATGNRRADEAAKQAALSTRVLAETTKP
Excerpt: Templates used in the Enzymatic Assays were the following: SSV-DNA-P: […]

[5] = molecular target: T4, mouse embryo RNA-polymerase II (ME-RNA-P2) (Mus musculus, UniProt P08775+Q8CFI7); assay: effect on mouse embryo RNA-polymerase II; type: biochemical; conditions: for remaining activity at 10 µg: read-out: % Control Activity of ME-RNA-P2 at 10μg; for remaining activity at 100 µg: read-out: % Control Activity of ME-RNA-P2 at 100μg
T4 construct: mouse embryo RNA-polymerase II (ME-RNA-P2); endogenous in cells; host or cells: mouse embryo cells
Excerpt: as §1

[6] = system: mouse embryo DNA-polymerase II (ME-DNA-P2); assay: effect on mouse embryo DNA-polymerase II; type: biochemical; conditions: activated Calf-Thymus DNA
Excerpt: (§2) Oligo dT.Poly rA. ME-DNA-P1 and ME-DNA-p2 : activated

[7] = system: mouse embryo DNA-polymerase I (ME-DNA-P1); assay: effect on mouse embryo DNA-polymerase I; type: biochemical; conditions: activated Calf-Thymus DNA
Excerpt: as §2

[8] = system: normal polymerases; assay: effect on normal polymerases, native template; type: biochemical; conditions: about 5 μg/ml
Description: (§3) DNA polymerase assays were carried out in a final volume of 100 μl. The assay mixture contained Tris-HCl buffer, pH 8.3, 50 mM; MgAc, 6.0 mM; dithiothreitol, 8.0 mM; NaCl, 60 mM. Adjustment of pH was carried out after addition of inhibitors which were previously dissolved in dimethylsulfoxide (DMSO). The final concentration of DMSO was 0.5% and all control samples included this amount of DMSO. An enzyme concentration that catalyzes an incorporation of approximately 1.0 pmole/hr was used in the assay. The enzyme was in most cases preincubated for 5 minutes with the inhibitor. […]
(§4) In these cases, reactions were initiated by adding enzyme to the complete reaction mixture, which included the inhibitor. […] The products were collected on Millipore filter, washed extensively with 5% TCA and 1 ml. of DMSO-ethanol 0.1 M NaCl mixture (0.5:70:29.5), dried and counted in 2 ml. of BBS3 (Beckman) and 10 ml. of liquifluor (New England Nuclear) in a Packard liquid scintillation counter.

[9] = system: tumor virus polymerases; assay: inhibition of tumor virus polymerases, native template; type: biochemical; conditions: about 5 μg/ml
Description: as §3, §4

## COC1C=COC2(C)Oc3c(C)c(O)c4c(O)c(c(C=NNC5CCCCCC5)c(O)c4c3C2=O)NC(=O)C(C)=CC=CC(C)C(O)C(C)C(O)C(C)C(OC(C)=O)C1C (centres unmarked) [Example 13]
[1]
  incorporation of H3-dTTP relative to that found in the control tests: less than 10%
[2]
  MIC: 10 µg/mL (≈ 12 µM)

## COC1C=COC2(C)Oc3c(C)c(O)c4c(O)c(c(C=NN5CCN(C)CC5)c(O)c4c3C2=O)NC(=O)C(C)=CC=CC(C)C(O)C(C)C(O)C(C)C(OC(C)=O)C1C (centres unmarked) [Rifampicin, 3-(4-methyl-1-piperazinyl)iminomethylrifamycin SV]
[3]
  remaining activity at 10 µg: 77.7%
  remaining activity at 100 µg: 86%
[4]
  % Control Activity of SSV-DNA-P at 5μg: 94%
  % Control Activity of SSV-DNA-P at 10μg: 97%
  % Control Activity of SSV-DNA-P at 100μg: 96%
[5]
  remaining activity at 10 µg: 81%
  remaining activity at 100 µg: 99%
[6]
  % Control Activity of ME-DNA-P2 at 10μg: 96%
  % Control Activity of ME-DNA-P2 at 100μg: 16%
[2]
  MIC: > 100 µg/mL
[2]; in vitro, Staphylococcus aureus strain resistant to rifampicin
  Minimal inhibitory concentration: > 100 µg/mL
[7]
  % Control Activity of ME-DNA-P1 at 10μg: 99%
  % Control Activity of ME-DNA-P1 at 100μg: 56%

## COC1C=COC2(C)Oc3c(C)c(O)c4c(O)c(c(C=NNc5ccc([N+](=O)[O-])cc5[N+](=O)[O-])c(O)c4c3C2=O)NC(=O)C(C)=CC=CC(C)C(O)C(C)C(O)C(C)C(OC(C)=O)C1C (centres unmarked) [Example 12]
[3]
  remaining activity at 10 µg: 115%
  remaining activity at 100 µg: 100%
[4]; 5μg, template Oligo dT.Poly rA
  % Control Activity of SSV-DNA-P at 5μg: 44%
[4]; 10μg, template Oligo dT.Poly rA
  % Control Activity of SSV-DNA-P at 10μg: 34%
[4]; 100μg, template Oligo dT.Poly rA
  % Control Activity of SSV-DNA-P at 100μg: 1%
[5]
  remaining activity at 10 µg: 92%
  remaining activity at 100 µg: 72%
[8]
  activity on normal polymerases: practically inactive
[9]
  inhibition of tumor virus polymerases: 44%
[1]
  incorporation of H3-dTTP relative to that found in the control tests: less than 10%
[6]; 5μg
  % Control Activity of ME-DNA-P2 at 5μg: 72%
[6]
  % Control Activity of ME-DNA-P2 at 10μg: 83%
  % Control Activity of ME-DNA-P2 at 100μg: 46%
[2]
  MIC: 10 µg/mL (≈ 11 µM)
[7]; 5μg
  % Control Activity of ME-DNA-P1 at 5μg: 102%
[7]
  % Control Activity of ME-DNA-P1 at 10μg: 83%
  % Control Activity of ME-DNA-P1 at 100μg: 11%

## COC1C=COC2(C)Oc3c(C)c(O)c4c(O)c(c(C=NN(Cc5ccccc5)c5ccccc5)c(O)c4c3C2=O)NC(=O)C(C)=CC=CC(C)C(O)C(C)C(O)C(C)C(OC(C)=O)C1C (centres unmarked) [Example 15]
[1]
  incorporation of H3-dTTP relative to that found in the control tests: less than 10%
[2]
  MIC: 2 µg/mL (≈ 2.21 µM)

## COC1C=COC2(C)Oc3c(C)c(O)c4c(O)c(c(C=NN(c5ccccc5)c5ccccc5)c(O)c4c3C2=O)NC(=O)C(C)=CC=CC(C)C(O)C(C)C(O)C(C)C(OC(C)=O)C1C (centres unmarked) [Example 11]
[1]
  incorporation of H3-dTTP relative to that found in the control tests: less than 10%
[2]
  MIC: 2 µg/mL (≈ 2.24 µM)

## COC1C=COC2(C)Oc3c(C)c(O)c4c(O)c(c(C=NNC5CCCCCCC5)c(O)c4c3C2=O)NC(=O)C(C)=CC=CC(C)C(O)C(C)C(O)C(C)C(OC(C)=O)C1C (centres unmarked) [Example 14]
[1]
  incorporation of H3-dTTP relative to that found in the control tests: less than 10%
[2]
  MIC: 5 µg/mL (≈ 5.88 µM)

From patent publication US4005076A, “Hydrazones of 3-formylrifamycin SV” (Gruppo Lepetit S.p.A., priority 1971, dated 1977)
